What was measured:
Type in all cases: in vivo
[1] = test system: Italian ryegrass (Lolium multiflorum); assay: Test A preemergence, visual injury rating
Procedure, shortened: (§1)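 Visual injury scored 0–100 (100 = complete control) against untreated controls about 10 days after treatment in a greenhouse. Test chemicals, formulated with surfactant in non-phytotoxic solvent, were sprayed on soil preemergence or on 2-10 cm, one- to two-leaf plants postemergence.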

[2] = test system: barnyardgrass (Echinochloa crus-galli); assay: Test A preemergence, visual injury rating
Procedure, shortened: as §1

[3] = test system: giant foxtail (Setaria faberii); assay: Test A preemergence, visual injury rating
Procedure, shortened: as §1

kochia (Kochia scoparia) [4] = assay: Test A preemergence, visual injury rating
Procedure, shortened: as §1

[5] = test system: pigweed (Amaranthus retroflexus); assay: Test A preemergence, visual injury rating
Procedure, shortened: as §1

[6] = test system: ragweed (common ragweed, Ambrosia elatior); assay: Test A preemergence, visual injury rating
Procedure, shortened: as §1

[7] = test system: Italian ryegrass (Lolium multiflorum); assay: Test A postemergence, visual injury rating; conditions: 0 is no effect, 100 is complete control; for Ryegrass, Italian plant response rating: 0 to 100 scale, approximately 10 days
Procedure, shortened: as §1

[8] = test system: barnyardgrass (Echinochloa crus-galli); assay: Test A postemergence, visual injury rating; conditions: 0 is no effect, 100 is complete control; for Barnyardgrass plant response rating: 0 to 100 scale, approximately 10 days
Procedure, shortened: as §1

[9] = test system: blackgrass (Alopecurus myosuroides); assay: Test A postemergence, visual injury rating; conditions: 0 is no effect, 100 is complete control; for Blackgrass plant response rating: 0 to 100 scale, approximately 10 days
Procedure, shortened: as §1

corn (Zea mays) = assay: Test A postemergence, visual injury rating; conditions: 0 is no effect, 100 is complete control; for Corn plant response rating: 0 to 100 scale, approximately 10 days
Procedure, shortened: as §1

[10] = test system: galium (catchweed bedstraw, Galium aparine); assay: Test A postemergence, visual injury rating; conditions: 0 is no effect, 100 is complete control; for Galium plant response rating: 0 to 100 scale, approximately 10 days
Procedure, shortened: as §1

[11] = test system: giant foxtail (Setaria faberii); assay: Test A postemergence, visual injury rating; conditions: 0 is no effect, 100 is complete control; for Foxtail, Giant plant response rating: 0 to 100 scale, approximately 10 days
Procedure, shortened: as §1

kochia (Kochia scoparia) [12] = assay: Test A postemergence, visual injury rating; conditions: 0 is no effect, 100 is complete control; for Kochia plant response rating: 0 to 100 scale, approximately 10 days
Procedure, shortened: as §1

[13] = test system: pigweed (Amaranthus retroflexus); assay: Test A postemergence, visual injury rating; conditions: 0 is no effect, 100 is complete control; for Pigweed plant response rating: 0 to 100 scale, approximately 10 days
Procedure, shortened: as §1

[14] = test system: ragweed (common ragweed, Ambrosia elatior); assay: Test A postemergence, visual injury rating; conditions: 0 is no effect, 100 is complete control; for Ragweed plant response rating: 0 to 100 scale, approximately 10 days
Procedure, shortened: as §1

[15] = test system: wheat (Triticum aestivum); assay: Test A postemergence, visual injury rating; conditions: 0 is no effect, 100 is complete control; for Wheat plant response rating: 0 to 100 scale, approximately 10 days
Procedure, shortened: as §1

[16] = test system: barnyardgrass (Echinochloa crus-galli); assay: Test B flooded paddy test, plant response rating; conditions: 250 g ai/ha; Flood; scale of 0 to 100 where 0 is no effect and 100 is complete control; 13 to 15 days
Procedure, shortened: (§2)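 Under a constant 3 cm flood, test compounds went directly into the paddy water. Following 13 to 15 days of greenhouse growth, treated species and controls were compared by eye.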

[17] = test system: ducksalad (Heteranthera limosa); assay: Test B flooded paddy test, plant response rating; conditions: 250 g ai/ha; Flood; scale of 0 to 100 where 0 is no effect and 100 is complete control; 13 to 15 days
Procedure, shortened: as §2

rice (Oryza sativa) = assay: Test B flooded paddy test, plant response rating; conditions: 250 g ai/ha; Flood; scale of 0 to 100 where 0 is no effect and 100 is complete control; 13 to 15 days
Procedure, shortened: as §2

[18] = test system: sedge, umbrella (small-flower umbrella sedge, Cyperus difformis); assay: Test B flooded paddy test, plant response rating; conditions: 250 g ai/ha; Flood; scale of 0 to 100 where 0 is no effect and 100 is complete control; 13 to 15 days
Procedure, shortened: as §2

[19] = 31 g ai/ha, 0 to 100 scale, 0 no effect, 100 complete control
[20] = 125 g ai/ha, 0 to 100 scale (0 no effect, 100 complete control)

| SMILES | Plant response rating, Ryegrass, Italian [1, 19] | Plant response rating, Barnyardgrass [2, 19] | Plant response rating, Foxtail, Giant [3, 19] | Plant response rating, Kochia (kochia (Kochia scoparia) [4]; [19]) | Plant response rating, Pigweed [5, 19] | Plant response rating, Ragweed [6, 19] | Ryegrass, Italian plant response rating ([7]; 31 g ai/ha) | Barnyardgrass plant response rating ([8]; 31 g ai/ha) | Blackgrass plant response rating ([9]; 31 g ai/ha) | Corn plant response rating (corn (Zea mays); 31 g ai/ha) | Galium plant response rating ([10]; 31 g ai/ha) | Foxtail, Giant plant response rating ([11]; 31 g ai/ha) | Kochia plant response rating (kochia (Kochia scoparia) [12]; 31 g ai/ha) | Pigweed plant response rating ([13]; 31 g ai/ha) | Ragweed plant response rating ([14]; 31 g ai/ha) | Wheat plant response rating ([15]; 31 g ai/ha) | Plant response rating, Barnyardgrass [16] | Plant response rating, Ducksalad [17] | Plant response rating, Rice (rice (Oryza sativa)) | Plant response rating, Sedge, Umbrella [18] | other results |
| --- | --- | --- | --- | --- | --- | --- | --- | --- | --- | --- | --- | --- | --- | --- | --- | --- | --- | --- | --- | --- | --- |
| Cc1cccc(Oc2ncc(Cl)cn2)c1C(=O)OCCC(F)(F)F [Compound 99] | 0 | 70 | 90 | 40 | 50 | 0 | 0 | 30 | 30 | 0 | 20 | 50 | 20 | 10 | 10 | 0 | 60 | 100 | 40 | 90 | Plant response rating, Ryegrass, Italian [1, 20]: 30; Barnyardgrass plant response rating [2, 20]: 100; Plant response rating, Foxtail, Giant [3, 20]: 100; Plant response rating, Kochia (kochia (Kochia scoparia) [4]; [20]): 80; Plant response rating, Pigweed [5, 20]: 90; Plant response rating, Ragweed [6, 20]: 10; Ryegrass, Italian plant response rating ([7]; 125 g ai/ha): 50; Barnyardgrass plant response rating ([8]; 125 g ai/ha): 80; Blackgrass plant response rating ([9]; 125 g ai/ha): 80; Corn plant response rating (corn (Zea mays); 125 g ai/ha): 50; Galium plant response rating ([10]; 125 g ai/ha): 70; Foxtail, Giant plant response rating ([11]; 125 g ai/ha): 90; Kochia plant response rating (kochia (Kochia scoparia) [12]; 125 g ai/ha): 40; Pigweed plant response rating ([13]; 125 g ai/ha): 40; Ragweed plant response rating ([14]; 125 g ai/ha): 30; Wheat plant response rating ([15]; 125 g ai/ha): 30 |
| N#Cc1cccc(Oc2ncc(Cl)cn2)c1C(=O)CCC(F)(F)C(F)(F)F [Compound 111] | 0 | 0 | 0 | 0 | 0 | 0 | 0 | 0 | 0 | 0 | 0 | 0 | 0 | 0 | 0 | 0 | 0 | 0 | 0 | 0 | Plant response rating, Ryegrass, Italian [1, 20]: 0; Plant response rating, Barnyardgrass [2, 20]: 0; Plant response rating, Foxtail, Giant [3, 20]: 0; Plant response rating, Kochia (kochia (Kochia scoparia) [4]; [20]): 0; Plant response rating, Pigweed [5, 20]: 0; Plant response rating, Ragweed [6, 20]: 0; Ryegrass, Italian plant response rating ([7]; 125 g ai/ha): 0; Barnyardgrass plant response rating ([8]; 125 g ai/ha): 0; Blackgrass plant response rating ([9]; 125 g ai/ha): 0; Corn plant response rating (corn (Zea mays); 125 g ai/ha): 0; Galium plant response rating ([10]; 125 g ai/ha): 0; Foxtail, Giant plant response rating ([11]; 125 g ai/ha): 0; Kochia plant response rating (kochia (Kochia scoparia) [12]; 125 g ai/ha): 0; Pigweed plant response rating ([13]; 125 g ai/ha): 0; Ragweed plant response rating ([14]; 125 g ai/ha): 0; Wheat plant response rating ([15]; 125 g ai/ha): 0 |
| C#CCCOC(=O)c1c(Br)cccc1Oc1ncc(Cl)cn1 [Compound 38] | 0 | 20 | 30 | 0 | 60 | 0 | 0 | 10 | 0 | 0 | 50 | 40 | 30 | 80 | 0 | 0 | 0 | 40 | 0 | 30 | Ryegrass, Italian plant response rating [1, 20]: 0; Barnyardgrass plant response rating [2, 20]: 90; Foxtail, Giant plant response rating [3, 20]: 100; Kochia plant response rating (kochia (Kochia scoparia) [4]; [20]): 40; Pigweed plant response rating [5, 20]: 100; Ragweed plant response rating [6, 20]: 0; Ryegrass, Italian plant response rating (0 to 100 scale) ([7]; 125 g ai/ha): 0; Barnyardgrass plant response rating (0 to 100 scale) ([8]; 125 g ai/ha): 60; Blackgrass plant response rating (0 to 100 scale) ([9]; 125 g ai/ha): 0; Corn plant response rating (0 to 100 scale) (corn (Zea mays); 125 g ai/ha): 10; Galium plant response rating (0 to 100 scale) ([10]; 125 g ai/ha): 80; Foxtail, Giant plant response rating (0 to 100 scale) ([11]; 125 g ai/ha): 90; Kochia plant response rating (0 to 100 scale) (kochia (Kochia scoparia) [12]; 125 g ai/ha): 60; Pigweed plant response rating (0 to 100 scale) ([13]; 125 g ai/ha): 100; Ragweed plant response rating (0 to 100 scale) ([14]; 125 g ai/ha): 10; Wheat plant response rating (0 to 100 scale) ([15]; 125 g ai/ha): 0 |
| O=C(OC(CCl)CCl)c1c(Br)cccc1Oc1ncc(Cl)cn1 [Compound 36] | 0 | 0 | 0 | 0 | 0 | 0 | 0 | 0 | 0 | 0 | 0 | 0 | 0 | 0 | 0 | 0 | 0 | 0 | 0 | 0 | Ryegrass, Italian plant response rating [1, 20]: 0; Barnyardgrass plant response rating [2, 20]: 0; Foxtail, Giant plant response rating [3, 20]: 0; Kochia plant response rating (kochia (Kochia scoparia) [4]; [20]): 0; Pigweed plant response rating [5, 20]: 0; Ragweed plant response rating [6, 20]: 0; Ryegrass, Italian plant response rating (0 to 100 scale) ([7]; 125 g ai/ha): 0; Barnyardgrass plant response rating (0 to 100 scale) ([8]; 125 g ai/ha): 0; Blackgrass plant response rating (0 to 100 scale) ([9]; 125 g ai/ha): 0; Corn plant response rating (0 to 100 scale) (corn (Zea mays); 125 g ai/ha): 0; Galium plant response rating (0 to 100 scale) ([10]; 125 g ai/ha): 0; Foxtail, Giant plant response rating (0 to 100 scale) ([11]; 125 g ai/ha): 0; Kochia plant response rating (0 to 100 scale) (kochia (Kochia scoparia) [12]; 125 g ai/ha): 0; Pigweed plant response rating (0 to 100 scale) ([13]; 125 g ai/ha): 60; Ragweed plant response rating (0 to 100 scale) ([14]; 125 g ai/ha): 0; Wheat plant response rating (0 to 100 scale) ([15]; 125 g ai/ha): 0 |
| CC(C)(C)CCOC(=O)c1c(Br)cccc1Oc1ncc(Cl)cn1 [Compound 96] | 0 | 0 | 0 | 0 | 0 | 0 | 0 | 0 | 0 | 0 | 0 | 0 | 0 | 0 | 0 | 0 | 0 | 0 | 0 | 0 | Ryegrass, Italian plant response rating [1, 20]: 0; Barnyardgrass plant response rating [2, 20]: 0; Foxtail, Giant plant response rating [3, 20]: 0; Kochia plant response rating (kochia (Kochia scoparia) [4]; [20]): 0; Pigweed plant response rating [5, 20]: 0; Ragweed plant response rating [6, 20]: 0; Ryegrass, Italian plant response rating ([7]; 125 g ai/ha): 0; Barnyardgrass plant response rating ([8]; 125 g ai/ha): 10; Blackgrass plant response rating ([9]; 125 g ai/ha): 10; Corn plant response rating (corn (Zea mays); 125 g ai/ha): 20; Galium plant response rating ([10]; 125 g ai/ha): 20; Foxtail, Giant plant response rating ([11]; 125 g ai/ha): 10; Kochia plant response rating (kochia (Kochia scoparia) [12]; 125 g ai/ha): 0; Pigweed plant response rating ([13]; 125 g ai/ha): 10; Ragweed plant response rating ([14]; 125 g ai/ha): 0; Wheat plant response rating ([15]; 125 g ai/ha): 0 |
